Where two headings read alike, the source gives them in different places.
Legend:
Format in all cases: biochemical
[1] = target: T1, 320 wild-type protein kinases (Homo sapiens, UniProt Q13470); settings: kinase TNK1, singlicate
T1 sequence (Q13470 1-666): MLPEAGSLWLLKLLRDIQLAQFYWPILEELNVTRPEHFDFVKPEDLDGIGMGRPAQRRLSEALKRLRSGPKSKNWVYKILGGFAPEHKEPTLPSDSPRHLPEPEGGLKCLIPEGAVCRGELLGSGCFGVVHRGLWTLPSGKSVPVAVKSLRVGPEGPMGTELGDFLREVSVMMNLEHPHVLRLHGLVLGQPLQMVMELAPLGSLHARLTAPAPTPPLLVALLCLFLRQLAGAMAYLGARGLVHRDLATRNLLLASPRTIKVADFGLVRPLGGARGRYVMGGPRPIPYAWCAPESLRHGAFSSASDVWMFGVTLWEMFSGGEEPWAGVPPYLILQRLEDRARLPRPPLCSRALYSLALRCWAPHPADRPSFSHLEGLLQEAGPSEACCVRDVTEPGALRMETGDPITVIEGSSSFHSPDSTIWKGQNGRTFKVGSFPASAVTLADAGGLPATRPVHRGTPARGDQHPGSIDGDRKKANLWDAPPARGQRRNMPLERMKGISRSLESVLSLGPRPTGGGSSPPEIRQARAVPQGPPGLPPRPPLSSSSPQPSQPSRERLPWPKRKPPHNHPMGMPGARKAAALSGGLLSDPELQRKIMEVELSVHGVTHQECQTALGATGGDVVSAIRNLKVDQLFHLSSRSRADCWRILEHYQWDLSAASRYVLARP
Description: (§1) Table S4. Profiling of two compounds at two concentrations against 320 wild-type protein kinases; singlicate measurement; Residual activities (% of control).

[2] = target: T2, 320 wild-type protein kinases (Homo sapiens, UniProt Q05513); settings: PKC-zeta, singlicate
T2 sequence (Q05513 1-592): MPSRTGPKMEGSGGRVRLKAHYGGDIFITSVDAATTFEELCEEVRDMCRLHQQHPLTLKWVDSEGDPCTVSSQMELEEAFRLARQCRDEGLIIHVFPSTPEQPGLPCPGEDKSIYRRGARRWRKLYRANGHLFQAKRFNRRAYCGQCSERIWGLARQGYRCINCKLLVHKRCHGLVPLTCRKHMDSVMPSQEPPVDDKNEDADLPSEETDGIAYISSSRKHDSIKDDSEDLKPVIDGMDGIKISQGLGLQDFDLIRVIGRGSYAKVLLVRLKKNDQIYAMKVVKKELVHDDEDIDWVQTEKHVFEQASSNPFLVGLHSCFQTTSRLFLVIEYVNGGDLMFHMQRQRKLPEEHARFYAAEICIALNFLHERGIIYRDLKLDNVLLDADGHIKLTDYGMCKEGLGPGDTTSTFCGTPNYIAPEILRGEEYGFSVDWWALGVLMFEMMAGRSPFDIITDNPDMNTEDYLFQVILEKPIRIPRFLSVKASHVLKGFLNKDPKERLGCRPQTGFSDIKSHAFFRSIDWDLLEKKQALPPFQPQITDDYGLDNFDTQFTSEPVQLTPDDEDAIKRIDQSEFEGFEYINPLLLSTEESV
Description: as §1

[3] = target: T3, 320 wild-type protein kinases (Homo sapiens, UniProt Q99683); settings: singlicate
T3 sequence (Q99683 1-1374): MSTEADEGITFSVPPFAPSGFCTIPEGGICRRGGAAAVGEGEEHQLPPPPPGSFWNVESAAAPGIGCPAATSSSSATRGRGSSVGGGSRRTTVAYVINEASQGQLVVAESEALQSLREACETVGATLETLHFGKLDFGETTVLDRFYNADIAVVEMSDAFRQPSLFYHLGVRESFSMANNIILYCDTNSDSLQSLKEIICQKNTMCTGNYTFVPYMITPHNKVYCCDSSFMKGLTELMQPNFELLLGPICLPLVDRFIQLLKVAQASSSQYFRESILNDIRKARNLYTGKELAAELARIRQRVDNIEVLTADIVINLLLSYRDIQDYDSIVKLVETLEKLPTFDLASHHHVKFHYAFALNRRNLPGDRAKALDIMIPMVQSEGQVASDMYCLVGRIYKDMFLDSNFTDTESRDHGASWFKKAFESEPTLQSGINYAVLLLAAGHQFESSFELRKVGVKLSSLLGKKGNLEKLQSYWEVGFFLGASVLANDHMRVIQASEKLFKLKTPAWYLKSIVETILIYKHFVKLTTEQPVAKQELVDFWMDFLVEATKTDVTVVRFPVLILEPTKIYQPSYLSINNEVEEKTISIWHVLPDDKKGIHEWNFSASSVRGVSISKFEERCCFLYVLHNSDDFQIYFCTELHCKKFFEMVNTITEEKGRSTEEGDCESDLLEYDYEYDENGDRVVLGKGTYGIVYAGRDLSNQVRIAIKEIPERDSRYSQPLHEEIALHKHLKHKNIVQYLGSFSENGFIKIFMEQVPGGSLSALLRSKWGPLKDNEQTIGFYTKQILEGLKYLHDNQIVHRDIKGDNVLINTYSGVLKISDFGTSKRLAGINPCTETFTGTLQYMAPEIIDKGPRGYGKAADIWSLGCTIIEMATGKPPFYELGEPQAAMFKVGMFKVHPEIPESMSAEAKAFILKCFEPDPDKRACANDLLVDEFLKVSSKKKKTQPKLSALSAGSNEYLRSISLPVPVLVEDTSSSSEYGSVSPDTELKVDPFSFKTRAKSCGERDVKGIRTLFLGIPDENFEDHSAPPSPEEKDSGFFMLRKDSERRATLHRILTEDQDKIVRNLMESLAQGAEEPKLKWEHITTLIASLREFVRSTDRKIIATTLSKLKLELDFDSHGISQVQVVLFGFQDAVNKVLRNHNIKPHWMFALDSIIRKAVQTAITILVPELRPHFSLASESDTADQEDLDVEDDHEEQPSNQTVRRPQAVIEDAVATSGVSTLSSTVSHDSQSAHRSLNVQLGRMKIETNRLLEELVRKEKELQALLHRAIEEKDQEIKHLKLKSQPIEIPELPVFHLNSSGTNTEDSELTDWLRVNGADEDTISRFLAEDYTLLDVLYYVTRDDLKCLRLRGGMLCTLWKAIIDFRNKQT
Description: as §1

Structure (SMILES) | Residual activity, TNK1 ([1]; assay conc. 1.0E-06 M) | Residual activity, TNK1 ([1]; assay conc. 1.0E-07 M) | Residual activity ([2]; 1.0E-06 M) | Residual activity ([2]; 1.0E-07 M) | Residual activity ([3]; ASK1, 1.0E-06 M) | Residual activity ([3]; ASK1, 1.0E-07 M)
C#Cc1cc(Nc2ncnc3cc(I)ccc23)ccc1Cl [Compound 41] | 112 % of control | 130 % of control | 76 % of control | 87 % of control | 99 % of control | 95 % of control
C#Cc1cc(Nc2ncnc3cc(OC)c(OC)cc23)ccc1Cl [Compound 45] | 83 % of control | 117 % of control | 85 % of control | 73 % of control | 99 % of control | 93 % of control
